The results in this text go back to ChEMBL document CHEMBL1201862, “PubChem BioAssay data set” (2004).

Some test systems named below: HOP-92; HCT-116; HL-60; HT-29; A498; SW-620; SK-MEL-28; KM12; SF-268; ACHN; SNB-19; NCI-H460; A549; SNB-75; HCT-15; K562; SN12C; SK-MEL-2; SK-MEL-5.
What all share (assay): growth of human tumour cells (NCI), 48 h

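These data come from cells grown in 96-well plates and exposed to compound for 48 hours at five concentrations. The concentration for 50% growth inhibition is given as GI50.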 Calls of active or inactive are those of the source. No stated cut-off is given here; in the data, active = GI50 up to about 1.1 µM and inactive = higher.

With `CC(SC1=CC(=O)c2c(O)ccc(O)c2C1=O)C(=O)O` (configuration not stated), the GI50 in the assay on HOP-92 was > 58.5 µM (inactive); with HCT-116, 31.2 µM (inactive); in the assay with HL-60, 13.6 µM (inactive); in the assay with HT-29, 41.7 µM (inactive); in the assay with A498 it was > 62.7 µM (inactive); in the assay on SW-620, > 40.8 µM (inactive). In addition, the GI50 is > 55.1 µM (inactive) in the assay with SK-MEL-28; > 100 µM (inactive) with KM12; 48 µM (inactive) in the assay with SF-268; 26.7 µM (inactive) in the assay on ACHN; > 100 µM (inactive) in the assay with SNB-19; > 100 µM (inactive) in the assay on NCI-H460. In addition, the GI50 in the assay on A549 is 97.3 µM (inactive); in the assay with SNB-75, > 50.5 µM (inactive); with HCT-15, more than 37 µM; in the assay on K562, 13.8 µM (inactive); with SN12C, > 48.2 µM (inactive); in the assay with SK-MEL-2, > 100 µM (inactive). The GI50 in the assay with SK-MEL-5 was > 61.5 µM (inactive).
For `COc1cccc(/C=C/C(=O)c2sc(C(N)=S)nc2C)c1O`, the GI50 in the assay on HOP-92 is > 100 µM (inactive); in the assay on HCT-116, 38.5 µM (inactive); with HL-60, 22.2 µM (inactive); in the assay with HT-29 it was > 100 µM (inactive); with A498, > 100 µM (inactive); in the assay on SW-620, 21.2 µM (inactive). The GI50 is > 100 µM (inactive) in the assay on SK-MEL-28; > 62.2 µM (inactive) with KM12; > 86.3 µM (inactive) in the assay on SF-268; > 100 µM (inactive) in the assay on ACHN; > 100 µM (inactive) in the assay on SNB-19; > 76.4 µM (inactive) with NCI-H460. Also, the GI50 in the assay with A549 is > 100 µM (inactive); in the assay with SNB-75, > 100 µM (inactive); in the assay on HCT-15, 26.1 µM; in the assay with K562, 42.4 µM (inactive); with SN12C, > 100 µM (inactive); with SK-MEL-2, > 100 µM (inactive). Also, the GI50 with SK-MEL-5 is > 100 µM (inactive).
For the compound `CC(=O)C1CC(C)=CCC12C(=O)Nc1ccccc12` (configuration not stated), the GI50 with HOP-92, in the assay on HCT-116, in the assay on HL-60, in the assay on HT-29, in the assay on A498 and in the assay with SW-620 was > 100 µM (inactive) throughout. The GI50 in the assay on SK-MEL-28, in the assay with KM12, in the assay on SF-268, in the assay on ACHN, with SNB-19 and with NCI-H460 was > 100 µM (inactive) in each case. The GI50 in the assay on A549 is > 100 µM (inactive); with SNB-75 it was > 100 µM (inactive); in the assay on HCT-15 it was more than 100 µM; with K562, > 100 µM (inactive); in the assay on SN12C it was > 100 µM (inactive); with SK-MEL-2 it was > 100 µM (inactive). Also, the GI50 with SK-MEL-5 is > 100 µM (inactive).
As to `COC(=O)C#CC(N)=O`, the GI50 in the assay with HOP-92 was 20.6 µM (inactive); in the assay with HCT-116, 98.2 µM (inactive); in the assay on HL-60, 4.94 µM (inactive); in the assay with HT-29 it was > 100 µM (inactive); with A498, > 100 µM (inactive); in the assay with SW-620 it was 23.8 µM (inactive). In addition, the GI50 is 17.9 µM (inactive) with SK-MEL-28; > 100 µM (inactive) with KM12; > 100 µM (inactive) with SF-268; > 100 µM (inactive) in the assay with ACHN; > 100 µM (inactive) with SNB-19; > 100 µM (inactive) in the assay with NCI-H460. For the same compound, the GI50 with A549 is > 100 µM (inactive); in the assay on SNB-75 it was 35.1 µM (inactive); in the assay on HCT-15, more than 100 µM; with K562, 21.8 µM (inactive); in the assay with SN12C it was > 100 µM (inactive); in the assay on SK-MEL-2 it was > 91.2 µM (inactive). The GI50 with SK-MEL-5 was > 100 µM (inactive).
Consider `CC(=O)OC(C)C(=O)C1c2cccc(O)c2C(=O)c2c(O)cc(C)cc21` (configuration not stated), for which the GI50 was 0.288 µM (active) in the assay with HOP-92; 0.31 µM (active) with HCT-116; 0.308 µM (active) with HL-60; 1.66 µM (inactive) in the assay on HT-29; 1.59 µM (inactive) with A498; 0.502 µM (active) in the assay on SW-620. In addition, the GI50 in the assay on SK-MEL-28 was 1.01 µM (active); with KM12, 0.33 µM (active); in the assay on SF-268 it was 0.381 µM (active); with ACHN it was 0.579 µM (active); with SNB-19 it was 0.344 µM (active); in the assay on NCI-H460, 0.375 µM (active). In addition, the GI50 was 0.322 µM (active) in the assay on A549; 0.52 µM (active) in the assay on SNB-75; 0.479 µM with HCT-15; 0.354 µM (active) in the assay on K562; 0.879 µM (active) with SN12C; 0.429 µM (active) in the assay with SK-MEL-2. The GI50 in the assay with SK-MEL-5 is 0.357 µM (active).
With `O=C(CC/C(C/C(=N/O)c1ccc(F)cc1)=N/O)N(Cc1ccccc1)Cc1ccccc1`, the GI50 in the assay on HOP-92, in the assay with HCT-116, with HL-60, in the assay on HT-29, in the assay on A498 and in the assay with SW-620 was > 100 µM (inactive) each time. For the same compound, the GI50 in the assay on SK-MEL-28, in the assay on KM12, in the assay on SF-268, in the assay on ACHN, with SNB-19 and with NCI-H460 was > 100 µM (inactive) each time. Moreover, the GI50 was > 100 µM (inactive) in the assay with A549; > 100 µM (inactive) in the assay on SNB-75; more than 100 µM in the assay on HCT-15; > 100 µM (inactive) with K562; > 100 µM (inactive) in the assay with SN12C; > 100 µM (inactive) with SK-MEL-2. Also, the GI50 in the assay on SK-MEL-5 is > 100 µM (inactive).
Regarding `CN(C)CCC1(C2=CCCC2)CC/C(=C\c2ccccc2)C1=O` (configuration not stated), the GI50 is 17.7 µM (inactive) in the assay on HOP-92; 19.5 µM (inactive) in the assay on HCT-116; 11.8 µM (inactive) in the assay on HL-60; 17.1 µM (inactive) in the assay on HT-29; 15.5 µM (inactive) with A498; 16.9 µM (inactive) with SW-620. The GI50 in the assay on SK-MEL-28 is 21.8 µM (inactive); with KM12, 15.5 µM (inactive); in the assay on SF-268, 21.5 µM (inactive); with ACHN it was 15.3 µM (inactive); in the assay on SNB-19 it was 14.7 µM (inactive); in the assay with NCI-H460, 15.9 µM (inactive). In addition, the GI50 with A549 was 20.3 µM (inactive); with SNB-75, 17 µM (inactive); in the assay with HCT-15, 13 µM; in the assay with K562, 13.8 µM (inactive); in the assay on SN12C, 17 µM (inactive); in the assay on SK-MEL-2, 16.4 µM (inactive). Besides, the GI50 in the assay with SK-MEL-5 is 14.7 µM (inactive).
As to `CCCCCC[N+](C)(C)Cc1ccc(C[N+](C)(C)CCCCCC)cc1`, the GI50 in the assay on HOP-92 was 2.97 µM (inactive); with HCT-116 it was 3.71 µM (inactive); with HL-60, 4.33 µM (inactive); with HT-29 it was 3.8 µM (inactive); in the assay with A498, 11.2 µM (inactive); with SW-620, 4.84 µM (inactive). In addition, the GI50 in the assay on SK-MEL-28 is 4.95 µM (inactive); with KM12, 2.25 µM (inactive); in the assay on SF-268 it was 2.79 µM (inactive); in the assay on ACHN, 3.56 µM (inactive); in the assay with SNB-19 it was 5.2 µM (inactive); with NCI-H460, 2.64 µM (inactive). The GI50 was 3.36 µM (inactive) with A549; 2.8 µM (inactive) with SNB-75; 4 µM with HCT-15; 1.61 µM (inactive) in the assay with K562; 3.49 µM (inactive) in the assay on SN12C; 2.14 µM (inactive) with SK-MEL-2. Also, the GI50 in the assay on SK-MEL-5 is 6.64 µM (inactive).
